# From the supplement of paper PMC10307832
# Experiments:
# Experiment in all cases: relative viability (nuclei count vs DMSO), 5 days (fraction); higher = more cells survive
# VE-821 + Trametinib = compound: CS(=O)(=O)c1ccc(-c2cnc(N)c(C(=O)Nc3ccccc3)n2)cc1 [VE-821] + CC(=O)Nc1cccc(-n2c(=O)n(C3CC3)c(=O)c3c(Nc4ccc(I)cc4F)n(C)c(=O)c(C)c32)c1 [Trametinib] (partner 0.02 µM)
# Procedure, shortened: (§1)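 Five library-drug doses in √10 steps were combined with a fixed anchor-drug dose, or a single drug was given alone, by pin tool to lung cancer cell lines in 1536-well plates the day after seeding. Nuclei were stained and counted after 5 days. Relative viability is the nuclei count in treated wells over that in vehicle wells, taken as the median of duplicate plates.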
# VE-821 + OSI-027 = compound: CS(=O)(=O)c1ccc(-c2cnc(N)c(C(=O)Nc3ccccc3)n2)cc1 [VE-821] + COc1cccc2cc(-c3nc([C@H]4CC[C@H](C(=O)O)CC4)n4ncnc(N)c34)[nH]c12 [OSI-027] (partner 0.5 µM)
# Procedure, shortened: as §1
# Ruxolitinib + Linsitinib = compound: N#CC[C@H](C1CCCC1)n1cc(-c2ncnc3[nH]ccc23)cn1 [Ruxolitinib] + C[C@]1(O)C[C@@H](c2nc(-c3ccc4ccc(-c5ccccc5)nc4c3)c3c(N)nccn32)C1 [Linsitinib] (partner 1 µM)
# Procedure, shortened: as §1
# Ruxolitinib + Tozasertib = compound: N#CC[C@H](C1CCCC1)n1cc(-c2ncnc3[nH]ccc23)cn1 [Ruxolitinib] + Cc1cc(Nc2cc(N3CCN(C)CC3)nc(Sc3ccc(NC(=O)C4CC4)cc3)n2)n[nH]1 [Tozasertib] (partner 0.1 µM)
# Procedure, shortened: as §1
Cell Line,relative viability (VE-821 + Trametinib; first compound 0.08 µM),relative viability (VE-821 + Trametinib; first compound 0.253 µM),relative viability (VE-821 + Trametinib; first compound 0.8 µM),relative viability (VE-821 + Trametinib; first compound 2.53 µM),relative viability (VE-821 + Trametinib; first compound 8 µM),relative viability (VE-821 + OSI-027; first compound 0.08 µM),relative viability (VE-821 + OSI-027; first compound 0.253 µM),relative viability (VE-821 + OSI-027; first compound 0.8 µM),relative viability (VE-821 + OSI-027; first compound 2.53 µM),relative viability (VE-821 + OSI-027; first compound 8 µM),relative viability (Ruxolitinib + Linsitinib; first compound 0.08 µM),relative viability (Ruxolitinib + Linsitinib; first compound 0.253 µM),relative viability (Ruxolitinib + Linsitinib; first compound 0.8 µM),relative viability (Ruxolitinib + Linsitinib; first compound 2.53 µM),relative viability (Ruxolitinib + Linsitinib; first compound 8 µM),relative viability (Ruxolitinib + Tozasertib; first compound 0.08 µM),relative viability (Ruxolitinib + Tozasertib; first compound 0.253 µM),relative viability (Ruxolitinib + Tozasertib; first compound 0.8 µM),relative viability (Ruxolitinib + Tozasertib; first compound 2.53 µM),relative viability (Ruxolitinib + Tozasertib; first compound 8 µM)
LXF-289,0.708,0.641,0.773,0.745,0.741,0.949,0.726,0.902,0.971,0.759,0.919,0.972,0.858,0.892,0.813,0.215,0.165,0.233,0.134,0.187
NCI-H23,0.459,0.457,0.34,0.278,0.272,0.486,0.531,0.483,0.624,0.331,0.579,0.694,0.799,0.485,0.612,0.434,0.418,0.437,0.401,0.301
NCI-H322M,0.604,0.565,0.572,0.493,0.472,0.533,0.519,0.577,0.482,0.286,1.05,0.9,0.997,0.91,1.17,0.451,0.503,0.457,0.458,0.482
NCI-H358,0.143,0.139,0.139,0.138,0.134,0.983,0.875,0.727,0.79,0.48,0.716,0.629,0.803,0.514,0.544,0.102,0.0986,0.102,0.102,0.0752
NCI-H441,0.547,0.516,0.371,0.57,0.38,0.718,0.641,0.644,0.72,0.583,0.508,0.573,0.512,0.637,0.286,0.63,0.629,0.716,0.625,0.587
NCI-H460,0.185,0.0922,0.121,0.11,0.0592,0.814,0.628,0.409,0.292,0.0463,0.801,0.858,0.929,0.702,0.462,–,0.601,0.606,0.578,0.744
NCI-H520,0.752,0.744,0.654,0.752,0.44,0.257,0.257,0.195,0.278,0.208,–,1.08,1.16,0.847,0.679,0.553,0.467,0.537,0.439,0.477
NCI-H596,0.78,0.802,0.752,0.798,0.594,0.648,0.519,0.534,0.558,0.451,1.24,1.18,1.09,1.11,1.11,0.827,0.897,0.962,0.955,0.799
NCI-H647,0.62,0.419,0.352,0.389,0.234,0.748,0.786,0.676,0.509,0.376,1.29,1.15,1.22,1.16,1.03,0.297,0.237,0.224,0.378,0.297
NCI-H650,0.99,1.01,1.11,1.02,1.08,0.499,0.473,0.57,0.455,0.532,–,0.795,1.11,0.677,0.55,–,0.834,0.788,0.554,0.603
NCI-H661,0.703,0.536,0.563,0.658,0.52,0.805,0.743,0.783,0.758,0.663,0.598,0.639,0.708,0.498,0.591,0.358,0.354,0.365,0.363,0.352
NCI-H727,0.398,0.432,0.416,0.422,0.396,0.721,0.624,0.619,0.54,0.355,0.283,0.272,0.237,0.228,0.427,0.663,0.818,0.674,0.567,0.589
NCI-H838,0.568,0.472,0.544,0.648,0.345,0.431,0.341,0.329,0.425,0.435,1.03,0.903,0.87,0.534,0.36,0.299,0.23,0.256,0.223,0.225
NCI-H1355,0.53,0.424,0.349,0.429,0.381,0.443,0.346,0.375,0.442,0.307,0.794,0.841,0.843,0.753,0.716,0.575,0.564,0.571,0.594,0.574
NCI-H1395,1.11,0.988,0.913,1.02,0.763,0.684,0.605,0.607,0.639,0.484,–,0.998,1.08,0.945,1.01,0.768,0.718,0.86,0.753,0.78
NCI-H1437,0.533,0.445,0.498,0.566,0.376,1.12,0.831,0.838,0.851,0.756,0.983,0.994,1.02,0.966,0.653,0.457,0.39,0.406,0.413,0.422
NCI-H1651,0.876,0.799,0.733,0.808,0.821,0.781,0.629,0.578,0.686,0.521,0.949,0.864,1,0.929,0.964,0.714,0.637,0.64,0.573,0.682
NCI-H1666,0.833,0.809,0.867,0.718,0.85,0.903,0.785,0.948,0.936,0.703,0.739,0.949,0.933,0.776,0.902,0.596,0.579,0.587,0.585,0.521
NCI-H1734,0.718,0.732,0.651,0.723,0.587,0.701,0.529,0.599,0.529,0.331,0.852,0.752,0.794,0.8,0.821,0.332,0.25,0.281,0.209,0.223
NCI-H1755,0.86,0.737,0.781,0.711,0.741,0.795,0.709,0.636,0.755,0.632,1,0.961,0.971,0.9,0.817,0.561,0.525,0.622,0.616,0.557
NCI-H1793,0.605,0.408,–,0.526,0.618,0.247,0.305,0.232,0.272,0.242,0.632,0.92,1.04,1.12,0.968,0.343,0.368,0.48,0.492,0.309
NCI-H1915,0.331,0.288,0.281,0.349,0.303,0.701,0.593,0.618,0.684,0.534,1.12,1.05,1.05,1.04,1.03,0.462,0.434,0.464,0.398,0.419
NCI-H1944,0.401,0.445,0.432,0.399,0.364,0.441,0.354,0.383,0.463,0.328,1.23,1.12,1.28,1.15,1.21,0.248,0.263,0.24,0.292,0.266
NCI-H1975,0.359,0.37,0.199,0.352,0.227,0.901,0.589,–,0.471,0.439,1.03,1.03,1.05,0.71,0.587,0.724,0.78,0.682,0.767,0.389
NCI-H1993,0.534,0.604,0.61,0.505,0.502,0.532,0.553,0.506,0.468,0.495,0.785,0.783,0.779,0.801,0.796,0.585,0.618,0.643,0.631,0.551
NCI-H2009,0.266,0.287,0.254,0.263,0.174,0.693,0.557,0.598,0.618,0.318,1.21,1.23,1.28,1.02,0.904,0.781,0.754,0.853,0.717,0.578
NCI-H2023,0.575,0.488,0.349,0.252,0.181,0.392,0.311,0.274,0.274,0.11,0.689,0.589,0.722,0.683,0.672,0.305,0.352,0.506,0.356,0.302
